The values below come from ChEMBL document CHEMBL1125918, “Synthesis of 3-carbamoylecgonine methyl ester analogues as inhibitors of cocaine binding and dopamine uptake” (J Med Chem, 1991).

Structures are written as SMILES.

For orientation: IC50 means the concentration at which inhibition is half-maximal. A lower IC50 goes with inhibition by little substance.

The species named for this assay is Rattus norvegicus. Description: Compound was evaluated in vitro, for the ability to inhibit [3H]- dopamine uptake into synaptosomes (prepared from rat striatal tissues). It counts as functional. To be noted: Brain.
Regarding `COC(=O)C1C2CC[C@H](C[C@@H]1OC(=O)Nc1cccc([N+](=O)[O-])c1)N2C` (stereo partly specified), the IC50 turned out to be 0.178 µM.

`COC(=O)C1C2CC[C@H](C[C@@H]1OC(=O)Nc1ccc([N+](=O)[O-])cc1)N2C` (stereo partly specified): the IC50 stood at 5.7 µM. As for `COC(=O)C1C2CC[C@H](C[C@@H]1OC(=O)Nc1ccccc1)N2C` (stereo partly specified), the figure is 52.6 µM; as for `COC(=O)C1C2CC[C@H](C[C@@H]1OC(=O)Nc1ccc(N)cc1)N2C` (stereo partly specified), more than 100 µM. For `COC(=O)C1C2CC[C@H](C[C@@H]1OC(=O)Nc1cccc(N)c1)N2C` (stereo partly specified) the value was 23.1 µM; for `COC(=O)[C@H]1[C@@H](OC(=O)c2ccccc2)C[C@@H]2CC[C@H]1N2C` [COCAINE], 0.213 µM.
